Measured values published in PubChem BioAssay AID256 (DTP/NCI, 2004).
Where “and” joins values, the source holds several entries; their conditions need not be identical. Equal values may be shown once. Inconclusive results and toxic doses are left out. Rule for the calls: active = survival T/C of 150% or more; inactive = T/C below 125% in these data.

System: CD2F1 mice, L1210 leukemia ip, survival T/C
Assay: NCI In Vivo Anticancer Drug Screen. Data for tumor model L1210 Leukemia (intraperitoneal) in CD2F1 (CDF1) mice
Conditions: endpoint: mean survival time, higher = longer survival
How it was run: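 In this screen, transplantable tumors were grown in mice given either the compound or its vehicle. Results were expressed as the treated measurement relative to the control measurement.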

[1] = dose: 25.0 mg/kg/injection, schedule: Q01DX001 (ip), vehicle: saline with Tween-80
[2] = dose: 25.0 mg/kg/injection, schedule: Q01DX009 (ip), vehicle: saline with Tween-80
[3] = dose: 25.0 mg/kg/injection, schedule: Q04DX003 (ip), vehicle: saline with Tween-80
[4] = dose: 50.0 mg/kg/injection, schedule: Q01DX009 (ip), vehicle: saline with Tween-80
[5] = dose: 50.0 mg/kg/injection, schedule: Q04DX003 (ip), vehicle: saline with Tween-80
[6] = dose: 100.0 mg/kg/injection, schedule: Q01DX001 (ip), vehicle: saline with Tween-80
[7] = dose: 100.0 mg/kg/injection, schedule: Q01DX009 (ip), vehicle: saline with Tween-80
[8] = dose: 100.0 mg/kg/injection, schedule: Q04DX003 (ip), vehicle: saline with Tween-80
[9] = dose: 200.0 mg/kg/injection, schedule: Q04DX002 (ip), vehicle: saline with Tween-80
[10] = dose: 200.0 mg/kg/injection, schedule: Q04DX003 (ip), vehicle: saline with Tween-80
[11] = dose: 200.0 mg/kg/injection, schedule: Q01DX009 (ip), vehicle: saline with Tween-80
[12] = dose: 400.0 mg/kg/injection, schedule: Q04DX003 (ip), vehicle: saline with Tween-80

Measured: T/C

CCOC(=O)c1ccc(NC(=O)Oc2cc3ccccc3cc2C(=O)Nc2ccccc2)cc1
inactive: [1] 87 % of control | [2] 94 % of control and 96 % of control | dose: 25.0 mg/kg/injection, schedule: Q04DX002 (ip), vehicle: saline with Tween-80 97 % of control | [3] 96 % of control and 98 % of control | dose: 50.0 mg/kg/injection, schedule: Q01DX001 (ip), vehicle: saline with Tween-80 87 % of control | [4] 88 % of control and 92 % of control | dose: 50.0 mg/kg/injection, schedule: Q04DX002 (ip), vehicle: saline with Tween-80 88 % of control and 92 % of control | [5] 88 % of control and 92 % of control | [6] 87 % of control | [7] 91 % of control and 96 % of control | [8] 92 % of control | [9] 87 % of control | [10] 92 % of control and 93 % of control

CN(/N=N/c1nc[nH]c1C(N)=O)C1CCCCC1
inactive: dose: 7.8 mg/kg/injection, schedule: Q01DX009 (ip), vehicle: Klucel (hydroxypropylcellulose) (HPC) 105 % of control | dose: 31.2 mg/kg/injection, schedule: Q01DX009 (ip), vehicle: Klucel (hydroxypropylcellulose) (HPC) 124 % of control | dose: 125.0 mg/kg/injection, schedule: Q01DX009 (ip), vehicle: Klucel (hydroxypropylcellulose) (HPC) 122 % of control | dose: 250.0 mg/kg/injection, schedule: Q01DX009 (ip), vehicle: Klucel (hydroxypropylcellulose) (HPC) 70 % of control

CCC(c1ccc(OC(=O)Cc2ccc(N(CCCl)CCCl)cc2)cc1)C(CC)c1ccc(OC(=O)Cc2ccc(N(CCCl)CCCl)cc2)cc1 (stereo not drawn)
inactive: dose: 3.1 mg/kg/injection, schedule: Q03HX016 (ip), vehicle: saline with Tween-80 94 % of control | dose: 3.1 mg/kg/injection, schedule: Q03HX024 (ip), vehicle: saline with Tween-80 100 % of control | dose: 6.3 mg/kg/injection, schedule: Q03HX008 (ip), vehicle: saline with Tween-80 88 % of control | dose: 6.3 mg/kg/injection, schedule: Q03HX024 (ip), vehicle: saline with Tween-80 91 % of control | dose: 12.5 mg/kg/injection, schedule: Q01DX009 (ip), vehicle: saline with Tween-80 88 % of control | dose: 12.5 mg/kg/injection, schedule: Q01DX009 (sc), vehicle: saline with Tween-80 100 % of control | dose: 12.5 mg/kg/injection, schedule: Q03HX024 (ip), vehicle: saline with Tween-80 88 % of control | [1] 94 % of control | dose: 25.0 mg/kg/injection, schedule: Q01DX001 (oral), vehicle: saline with Tween-80 103 % of control | dose: 25.0 mg/kg/injection, schedule: Q01DX001 (sc), vehicle: saline with Tween-80 91 % of control | [2] 90 % of control | dose: 25.0 mg/kg/injection, schedule: Q01DX009 (oral), vehicle: saline with Tween-80 114 % of control | dose: 25.0 mg/kg/injection, schedule: Q01DX009 (sc), vehicle: saline with Tween-80 100 % of control | dose: 25.0 mg/kg/injection, schedule: Q03HX024 (ip), vehicle: saline with Tween-80 88 % of control | [3] 91 % of control | dose: 25.0 mg/kg/injection, schedule: Q08DX002 (ip), vehicle: saline with Tween-80 88 % of control | dose: 50.0 mg/kg/injection, schedule: Q01DX001 (oral), vehicle: saline with Tween-80 105 % of control | dose: 50.0 mg/kg/injection, schedule: Q01DX001 (sc), vehicle: saline with Tween-80 88 % of control | [4] 88 % of control | dose: 50.0 mg/kg/injection, schedule: Q01DX009 (oral), vehicle: saline with Tween-80 94 % of control | dose: 50.0 mg/kg/injection, schedule: Q01DX009 (sc), vehicle: saline with Tween-80 97 % of control | dose: 50.0 mg/kg/injection, schedule: Q03HX016 (ip), vehicle: saline with Tween-80 88 % of control | dose: 50.0 mg/kg/injection, schedule: Q03HX024 (ip), vehicle: saline with Tween-80 88 % of control | [5] 88 % of control | dose: 50.0 mg/kg/injection, schedule: Q08DX002 (ip), vehicle: saline with Tween-80 90 % of control | dose: 80.0 mg/kg/injection, schedule: Q01DX005 (ip), vehicle: saline with Tween-80 96 % of control | dose: 80.0 mg/kg/injection, schedule: Q01DX009 (ip), vehicle: saline with Tween-80 93 % of control | [6] 90 % of control and 95 % of control | dose: 100.0 mg/kg/injection, schedule: Q01DX001 (oral), vehicle: saline with Tween-80 105 % of control | dose: 100.0 mg/kg/injection, schedule: Q01DX001 (sc), vehicle: saline with Tween-80 102 % of control | [7] 90 % of control | dose: 100.0 mg/kg/injection, schedule: Q01DX009 (oral), vehicle: saline with Tween-80 101 % of control | dose: 100.0 mg/kg/injection, schedule: Q01DX009 (sc), vehicle: saline with Tween-80 100 % of control | dose: 100.0 mg/kg/injection, schedule: Q04DX002 (ip), vehicle: saline with Tween-80 101 % of control | [8] 90 % of control | dose: 100.0 mg/kg/injection, schedule: Q08DX002 (ip), vehicle: saline with Tween-80 90 % of control | dose: 120.0 mg/kg/injection, schedule: Q01DX005 (ip), vehicle: saline with Tween-80 96 % of control | dose: 120.0 mg/kg/injection, schedule: Q01DX009 (ip), vehicle: saline with Tween-80 93 % of control | dose: 180.0 mg/kg/injection, schedule: Q01DX005 (ip), vehicle: saline with Tween-80 92 % of control | dose: 180.0 mg/kg/injection, schedule: Q01DX009 (ip), vehicle: saline with Tween-80 92 % of control | dose: 200.0 mg/kg/injection, schedule: Q01DX001 (ip), vehicle: saline with Tween-80 90 % of control | dose: 200.0 mg/kg/injection, schedule: Q01DX001 (oral), vehicle: saline with Tween-80 102 % of control | dose: 200.0 mg/kg/injection, schedule: Q01DX001 (sc), vehicle: saline with Tween-80 97 % of control | [11] 88 % of control | dose: 200.0 mg/kg/injection, schedule: Q01DX009 (oral), vehicle: saline with Tween-80 100 % of control | dose: 200.0 mg/kg/injection, schedule: Q01DX009 (sc), vehicle: saline with Tween-80 97 % of control | [9] 93 % of control | [10] 90 % of control | dose: 200.0 mg/kg/injection, schedule: Q08DX002 (ip), vehicle: saline with Tween-80 87 % of control | dose: 270.0 mg/kg/injection, schedule: Q01DX005 (ip), vehicle: saline with Tween-80 96 % of control | dose: 270.0 mg/kg/injection, schedule: Q01DX009 (ip), vehicle: saline with Tween-80 90 % of control | dose: 400.0 mg/kg/injection, schedule: Q01DX001 (ip), vehicle: saline with Tween-80 90 % of control | dose: 400.0 mg/kg/injection, schedule: Q01DX001 (oral), vehicle: saline with Tween-80 103 % of control | dose: 400.0 mg/kg/injection, schedule: Q01DX001 (sc), vehicle: saline with Tween-80 97 % of control | dose: 400.0 mg/kg/injection, schedule: Q01DX009 (oral), vehicle: saline with Tween-80 96 % of control | dose: 400.0 mg/kg/injection, schedule: Q04DX002 (ip), vehicle: saline with Tween-80 93 % of control | dose: 400.0 mg/kg/injection, schedule: Q08DX002 (ip), vehicle: saline with Tween-80 90 % of control | dose: 405.0 mg/kg/injection, schedule: Q01DX005 (ip), vehicle: saline with Tween-80 93 % of control | dose: 405.0 mg/kg/injection, schedule: Q01DX009 (ip), vehicle: saline with Tween-80 92 % of control | dose: 800.0 mg/kg/injection, schedule: Q01DX001 (ip), vehicle: saline with Tween-80 88 % of control and 90 % of control | dose: 800.0 mg/kg/injection, schedule: Q01DX001 (oral), vehicle: saline with Tween-80 97 % of control | dose: 800.0 mg/kg/injection, schedule: Q01DX001 (sc), vehicle: saline with Tween-80 90 % of control

NC(CCC(=O)NC(=O)OCc1ccccc1)C(=O)O (stereo not drawn)
inactive: [8] 93 % of control | [10] 101 % of control | [12] 90 % of control

C/C=C(\C)C(C)(C#N)Nc1ccccc1 (stereo not drawn)
inactive: [4] 103 % of control | [7] 100 % of control | [8] 101 % of control | [11] 102 % of control | [10] 101 % of control | [12] 95 % of control
